In patent US8431581B2, “Imidazopyrimidines and uses thereof” (priority 2008, dated 2013) one finds EC50 data, which are given here for 18 compounds.

One test concerns HIV-1 reporter virus, integrase Q148H/G140S (QHGS). Briefly: Luciferase reporter virus infectivity assay, QHGS mutant. The class given is cell-based. The note with it: 293T cells, Q148H/G140S reporter virus, Table 3; read-out: EC50 against the QHGS mutant. An excerpt:
Infectivity assays using reporter viruses derived from lentiviral vectors capable of a single round of infection were used to determine the activity (EC50) of compounds. The DNA used to generate viruses for infection was the full-length HIV-1 genome which had been envelope-deleted. In addition, a reporter gene (the firefly luciferase gene from Photinus pyralis) was cloned into the nef region of the HIV backbone for ease of assay readout. […]. Culture supernatants containing VSV-G pseudotyped virions were harvested 64 h post transfection, clarified by centrifugation to remove cell debris, and frozen at −70° C. until use.
HIV integrase was mutated within a shuttle vector (pGEM) containing the majority of the HIV-1 gag and pol sequence using site-directed mutagenesis to generate sequences that are known to confer resistance to published integrase inhibitors. These include but are not limited to mutations such as Q148H/G140S (in tables 2 and 3 # QHGS), N155H/E92Q (in table 2 # NHEQ), F121Y/T124K (in table 2 FYTK), Y143R (in table 2 # Y143R) and the triple mutant Q148K/G140A/E138A. (in table 2 # QKGAEA). The mutated integrase coding region within the shuttle vector was sequence verified, and then exchanged for the wild-type (WT) coding sequence in the reporter virus DNA backbone.
293T cells were plated out at 12000 cells per well in CellView 96-well cell culture plates (Invitrogen) 16 h prior to compound addition. Compounds were preincubated with cells for 4 h at 37° C. prior to the addition of virus sufficient to generate approximately 10000 Luciferase light units (as measured by the Victor Wallace luminometer) upon assaying using the Bright-Glo™ reagent (Promega) according to the manufacturer's instructions at 48 h post infection.
Turning to “6-Benzyloxy-1-[2-(2,6-dimethyl-morpholin-4-yl)-2-oxo-ethyl]-7-[5-(4-fluoro-2-methylsulfanyl-benzyl)-thiazol-2-yl]-1H-imidazo[1,2-a]pyrimidin-5-one [Example 168]”, the EC50 was in the range of 0.5 to 1 µM.

Still in this test, the particulars now being: Human immunodeficiency virus 1, HEK-293T, read-out: EC50 against the QHGS mutant.
Regarding `COC(=O)c1cc(F)ccc1Cc1cnc(-c2nc3n(CC(=O)N4C[C@H](C)O[C@@H](C)C4)ccn3c(=O)c2O)s1` (stereo in doubt) [Example 58, 2-(2-{1-[2-(2,6-Dimethyl-morpholin-4-yl)-2-oxo-ethyl]-6-hydroxy-5-oxo-1,5-dihydro-imidazo[1,2-a]pyrimidin-7-yl}-thiazol-5-ylmethyl)-5-fluoro-benzoic acid methyl ester], the EC50 is 0.5 to 1 µM. Same read-out and setting: the result for `C[C@H]1CN(C(=O)Cn2ccn3c(=O)c(O)c(-c4ncc(Cc5ccc(F)cc5S(=O)(=O)N(C)C)s4)nc23)C[C@H](C)O1` (stereo in doubt) [Example 104, 2-(2-{1-[2-(2,6-Dimethyl-morpholin-4-yl)-2-oxo-ethyl]-6-hydroxy-5-oxo-1,5-dihydro-imidazo[1,2-a]pyrimidin-7-yl}-thiazol-5-ylmethyl)-5-fluoro-N,N-dimethyl-benzenesulfonamide] reads less than 0.5 µM; that for `C[C@@H]1CN(C(=O)Cn2ccn3c(=O)c(O)c(-c4ncc(Cc5ccc(F)cc5S(C)(=O)=O)s4)nc23)C[C@@H](C)O1` (stereo in doubt) [Example 138, 1-[2-(2,6-Dimethyl-morpholin-4-yl)-2-oxo-ethyl]-7-[5-(4-fluoro-2-methanesulfonyl-benzyl)-thiazol-2-yl]-6-hydroxy-1H-imidazo[1,2-a]pyrimidin-5-one], 0.5 to 1 µM; that for `C[C@@H]1C[C@@H](C)CN(C(=O)Cn2ccn3c(=O)c(O)c(-c4ncc(Cc5ccc(F)cc5)s4)nc23)C1` (stereo in doubt) [Example 180, 1-[2-(3,5-Dimethyl-piperidin-1-yl)-2-oxo-ethyl]-7-[5-(4-fluoro-benzyl)-thiazol-2-yl]-6-hydroxy-1H-imidazo[1,2-a]pyrimidin-5-one], 0.5 to 1 µM. Same read-out and setting: the result for `C[C@H]1CN(C(=O)Cn2cc(N3CCCS3(=O)=O)n3c(=O)c(O)c(-c4ncc(Cc5ccc(F)cc5)s4)nc23)C[C@H](C)O1` [Example 75, 1-[2-(2,6-Dimethyl-morpholin-4-yl)-2-oxo-ethyl]-3-(1,1-dioxo-1l6-isothiazolidin-2-yl)-7-[5-(4-fluoro-benzyl)-thiazol-2-yl]-6-hydroxy-1H-imidazo[1,2-a]pyrimidin-5-one] reads 0.5 to 1 µM; that for `CC1CCCCN1C(=O)Cn1ccn2c(=O)c(O)c(-c3ncc(Cc4ccc(F)cc4)s3)nc12` (stereo not drawn) [Example 126, 7-(5-(4-fluorobenzyl)thiazol-2-yl)-6-hydroxy-1-(2-(2-methylpiperidin-1-yl)-2-oxoethyl)imidazo[1,2-a]pyrimidin-5(1H)-one], 0.5 to 1 µM. Same read-out and setting: in the case of `CC1CCN(C(=O)Cn2ccn3c(=O)c(O)c(-c4ncc(Cc5ccc(F)cc5)s4)nc23)CC1` [Example 157, 7-[5-(4-Fluoro-benzyl)-thiazol-2-yl]-6-hydroxy-1-[2-(4-methyl-piperidin-1-yl)-2-oxo-ethyl]-1H-imidazo[1,2-a]pyrimidin-5-one] it was 0.5 to 1 µM; in that of `O=C(NCc1ccc(Cl)c(Cl)c1)c1nc2n(CC(=O)N3CCCCC3)cc(CN3CCOCC3)n2c(=O)c1O` [Example 181, 6-Hydroxy-3-morpholin-4-ylmethyl-5-oxo-1-(2-oxo-2-piperidin-1-yl-ethyl)-1,5-dihydro-imidazo[1,2-a]pyrimidine-7-carboxylic acid 3,4-dichloro-benzylamide], 0.5 to 1 µM; in that of `C[C@H]1CN(C(=O)Cn2ccn3c(=O)c(O)c(-c4ncc(Cc5ccc(F)cc5)s4)nc23)C[C@H](C)O1` [Example 182, 1-[2-((2S,6S)-2,6-Dimethyl-morpholin-4-yl)-2-oxo-ethyl]-7-[5-(4-fluoro-benzyl)-thiazol-2-yl]-6-hydroxy-1H-imidazo[1,2-a]pyrimidin-5-one], less than 0.5 µM. With `CN1CCC(n2ccn3c(=O)c(O)c(-c4ncc(Cc5ccc(F)cc5)s4)nc23)C1=O` (stereo not drawn) [Example 183, 7-[5-(4-Fluoro-benzyl)-thiazol-2-yl]-6-hydroxy-1-(1-methyl-2-oxo-pyrrolidin-3-yl)-1H-imidazo[1,2-a]pyrimidin-5-one], the EC50 is 0.5 to 1 µM. Regarding `CC1CN(C(=O)C(C)n2ccn3c(=O)c(O)c(-c4ncc(Cc5ccc(F)cc5)s4)nc23)CC(C)O1` (stereo not drawn) [Example 184, 1-[2-(2,6-Dimethyl-morpholin-4-yl)-1-methyl-2-oxo-ethyl]-7-[5-(4-fluoro-benzyl)-thiazol-2-yl]-6-hydroxy-1H-imidazo[1,2-a]pyrimidin-5-one], the EC50 fell in the range of 1 to 10 µM.

With `O=C(Cn1ccn2c(=O)c(O)c(-c3ncc(Cc4ccc(F)cc4)s3)nc12)N1CC2CCC1C2` (stereo not drawn) [Example 185, 1-[2-(2-Aza-bicyclo[2.2.1]hept-2-yl)-2-oxo-ethyl]-7-[5-(4-fluoro-benzyl)-thiazol-2-yl]-6-hydroxy-1H-imidazo[1,2-a]pyrimidin-5-one], the concentration for a half-maximal effect (EC50) was in the range of 1 to 10 µM. Same read-out and setting: the result for `C[C@@H]1CN(C(=O)Cn2cc(N3CCCS3(=O)=O)n3c(=O)c(O)c(C(=O)NCc4ccc(F)cc4S(=O)(=O)N(C)C)nc23)C[C@@H](C)O1` [Example 186, 1-[2-((2R,6R)-2,6-Dimethyl-morpholin-4-yl)-2-oxo-ethyl]-3-(1,1-dioxo-1lambda*6*-isothiazolidin-2-yl)-6-hydroxy-5-oxo-1,5-dihydro-imidazo[1,2-a]pyrimidine-7-carboxylic acid 2-dimethylsulfamoyl-4-fluoro-benzylamide] reads less than 0.5 µM; that for `CC1CC(C)CN(C(=O)Cn2cc(N3CCCS3(=O)=O)n3c(=O)c(O)c(C(=O)NCc4ccc(F)cc4S(=O)(=O)N(C)C)nc23)C1` (stereo not drawn) [Example 187, 1-[2-(3,5-Dimethyl-piperidin-1-yl)-2-oxo-ethyl]-3-(1,1-dioxo-1lambda*6*-isothiazolidin-2-yl)-6-hydroxy-5-oxo-1,5-dihydro-imidazo[1,2-a]pyrimidine-7-carboxylic acid 2-dimethylsulfamoyl-4-fluoro-benzylamide], less than 0.5 µM. Take `CN(C)S(=O)(=O)c1cc(F)ccc1CNC(=O)c1nc2n(CC(=O)N3CCCCC3)cc(N3CCCS3(=O)=O)n2c(=O)c1O` [Example 188, 3-(1,1-Dioxo-1lambda*6*-isothiazolidin-2-yl)-6-hydroxy-5-oxo-1-(2-oxo-2-piperidin-1-yl-ethyl)-1,5-dihydro-imidazo[1,2-a]pyrimidine-7-carboxylic acid 2-dimethylsulfamoyl-4-fluoro-benzylamide]: the EC50 was less than 0.5 µM.

Consider `CC1CCCCN1C(=O)Cn1cc(N2CCCS2(=O)=O)n2c(=O)c(O)c(C(=O)NCc3ccc(F)cc3S(=O)(=O)N(C)C)nc12` (stereo not drawn) [Example 189, 3-(1,1-Dioxo-1lambda*6*-isothiazolidin-2-yl)-6-hydroxy-1-[2-(2-methyl-piperidin-1-yl)-2-oxo-ethyl]-5-oxo-1,5-dihydro-imidazo[1,2-a]pyrimidine-7-carboxylic acid 2-dimethylsulfamoyl-4-fluoro-benzylamide], for which the EC50 fell in the range of 0.5 to 1 µM. Consider `CC1CC(C)CN(C(=O)Cn2cc(N3CCCS3(=O)=O)n3c(=O)c(O)c(C(=O)NCc4ccc(Cl)c(Cl)c4)nc23)C1` (stereo not drawn) [Example 190, 1-[2-(3,5-Dimethyl-piperidin-1-yl)-2-oxo-ethyl]-3-(1,1-dioxo-1lambda*6*-isothiazolidin-2-yl)-6-hydroxy-5-oxo-1,5-dihydro-imidazo[1,2-a]pyrimidine-7-carboxylic acid 3,4-dichloro-benzylamide], for which the 50% effective concentration (EC50) fell in the range of 0.5 to 1 µM.
